In US4510142A, “Derivatives of biphenyl alkyl carboxylates and their use as medicaments” (Pierre Fabre S.A., priority 1981, dated 1985):
Counter-ions that a name gives are not always drawn. Like-named read-outs stand apart in the source and are kept apart here.

Legend:
[1] = tested on: carragenine oedema, rat's foot; test: anti-inflammatory oedema test by injecting carragenine into a rat's foot (Winter, Ribley and Nuss); assay type: in vivo
Method: Winter, E. Ribley and G. Nuss--Proc. Soc. Exper. Biol. Med., 1962, 111, 544 547.
The products were administered orally in suspension in a Tween-water mixture 2 hours before the experiment. All the administered compounds have a good anti-inflammatory activity. It will particularly be noted that the compound of Example 14 has a DE50 of 3 mg/kg.

conventional mice = test: in vivo; settings: p.o.; comparison products
Method: (§1) A toxicity study was carried out on conventional mice weighing about 20 grams.
(§2) The compounds corresponding to the general formula I according to the present invention and the pharmaceutically acceptable salts thereof were administered orally. The DL50 was calculated according to the method by L. C. Miller and M. L. Tainter--Proc. Soc. Exper.

[2] = tested on: pain (phenyl benzoquinone injection); test: pain-killing activity according to Siegmund (phenyl benzoquinone injection); assay type: in vivo; settings: oral, 30 minutes before injection of phenyl benzoquinone; read-out: DE50 (pain-killing activity)
Method: The pain-killing activity was studied according to Siegmund--J. Pharm. Exptl. ther., 1957, 119,453.
The compounds according to the present invention were administered orally 30 minutes before the injection of phenyl benzoquinone.

in vivo = settings: mouse, in vivo, po
Method: as §1, §2

[3] = Rattus norvegicus, po, read-out: DE50 (carragenine)
[4] = Rattus norvegicus, po, comparison products, read-out: DE50 (carragenine)

With Phenylbutanone the “DE50 (carragenine)” value ([1]; p.o., comparison products) was 30 mg/kg and the LD50 (conventional mice) was 400 mg/kg.

Molecule CC(C(=O)OCC(=O)N1CCC(c2ccccc2)CC1)c1ccc(-c2ccccc2Cl)cc1 (stereo not drawn) [Example 14, 2-(4-phenylpiperidino)-2-oxoethyl 2-(2'-chloro-4-biphenylyl)propionate] has an ED50 ([1]; rat, oral suspension in Tween-water, 2 hours before the experiment, read-out: DE50 (anti-inflammatory activity)) of 3 mg/kg, an ED50 [2] of 5 mg/kg and an LD50 (in vivo) of over 500 mg/kg.

Work on COc1ccc2c(c1)c(CC(=O)O)c(C)n2C(=O)c1ccc(Cl)cc1 [Indometacine] yielded an ED50 [1, 3] of 4 mg/kg and an LD50 (conventional mice) of 20 mg/kg.

CC(C)Cc1ccc(C(C)C(=O)O)cc1 (stereo not drawn) [Ibuprofen] gave an ED50 [1, 4] of 14 mg/kg.

Molecule CC(=O)Oc1ccccc1C(=O)O [Aspirin] has an ED50 [1, 3] of 135 mg/kg.

Work on CC(C(=O)OCC(=O)N1CCN(C)CC1)c1ccc(-c2ccccc2Cl)cc1 (stereo not drawn) [Example 12, 2-(4-methylpiperazino)-2-oxoethyl 2-(2'-chloro-4-biphenylyl)propionate hydrochloride] yielded an ED50 [2] of 7 mg/kg and an LD50 (in vivo) of over 500 mg/kg.

For COc1ccc2cc([C@H](C)C(=O)O)ccc2c1 [Naproxen], the ED50 [1, 4] was 5 mg/kg.
